# Entries after “also recorded” stand apart in the source; their conditions may differ. Where a name gives a salt, the structure may show the parent alone.
# Legend:
# Stat3 = Stat3 luciferase reporter cell assay (U3A cells, IL-6 stimulated); assay type: cell-based; details: for enhancement of Stat3 function: Stat3-dependent luciferase screen; for Stat3-dependent luciferase activity, primary screen: library screen in 384-well plates, IL-6 stimulated; for inhibition of Stat3 activity in validation studies: compounds tested individually, dose responses analyzed, selective versus NF-κB; for induction of luciferase in the Stat3 reporter system: cytokine treatment, test of reporter specificity
# Text: A cell-based assay system for each Stat1, Stat3 and Stat5 was developed to identify compounds that modulate the respective Stat activity. Although the details for each system are slightly different, as described below, the basic principle are the same. Appropriate cell lines (NIH3T3 for Stat1, U3A for Stat3, and T47D for Stat5) were transfected with a plasmid containing a luciferase reporter gene under the control of a promoter responsive to the indicated Stat, e.g., Stat1, Stat3 or Stat5, as well as a neomycin phosphotransferase cassette (BRIGHT GLO Luciferase Assay Kit available from Promega (Madison, Wis.). The reporter plasmid used in the Stat1 and Stat3 cell lines is described in Lynch et al., Cancer Research, 67:1254-61 (2007), which is herein incorporated by reference in its entirety. The nuclic acid binding sequence of Stat5 use in the reporter plasmid is denoted as region B in Walker et al., Oncogene, 26:224-233 (2007), which is herein incorporated by reference in its entirety.
# Cells were selected in geneticin (G418) to isolate clones that had stably integrated the plasmid. Individual clones were isolated and luciferase expression was measured by luminometry in the presence and absence of a stimulator of the specific Stat of interest. Clones having a low basal luciferase expression, prominent induction by a specific stimulus (IFN-γ for Stat1, (IL)-6 for Stat3 and prolactin for Stat5), no induction with an irrelevant stimulus, and stable properties after prolonged cell culture or cryopreservation and thawing were selected. […] Several of these cell lines for each Stat construct were deposited with American Type Culture Collection of Manassas, Va. For example, cell lines having the Stat1 inducible promoter were deposited under ATCC Nos. Cell lines having the Stat3 inducible promoter were deposited under ATCC Nos. Cell lines having the Stat5 inducible promoter were deposited under ATCC numbers Nos.
# To ensure the specificity of the reporter systems, the Stat3 reporter cell line and the NF-κB reporter system were compared. Each cell type was either untreated, treated with IL-6 (which activates Stat3 in both systems) or treated with TNF-α (which activates NF-κB in both).
# All three cell-based screening systems were adapted for use in 384-well plates, which were then used to screen a library of 1120 compounds (the Prestwick Myeloma Collection available from Prestwick Chemical, Illkirch, France). […] Briefly, 2,500 cells are plated per well in 30 μl of medium in a 384 well plate and grown in Dulbecco's modified Eagle's medium (DMEM) supplemented with 10% fetal calf serum in an incubator with a 95% air/5% CO2 atmosphere at 37° C. After a 16 hour incubation to allow cells to adhere, 100 nl of the test compound is added per well and incubated for one hour, after which the activating cytokine (IFN-γ, IL-6, and prolactin, respectively) are added to each well in 10 μl of medium. After 6 hours, 40 μl of 0.5× Bright-Glo luciferase substrate (diluted in PBS) is added, and luciferase activity is quantitated on a Luminoskan luminometer (Helsinki, Finland).
# NF-κB = NF-κB luciferase reporter cell assay (293T cells, TNF-α stimulated); assay type: cell-based; details: for NF-κB activity, primary screen: NF-κB luciferase reporter, control for non-specific effects; for induction of luciferase in the NF-κB reporter cells: cytokine treatment, test of reporter specificity
# Experimental: A parallel system was also developed in which luciferase was under the control of the transcription factor NF-κB (cell lines deposited on under ATCC Nos.). When these 293T cells are treated with tumor necrosis factor (TNF)-α, they show prominent induction of luciferase. This provided an independent control to exclude non-specific effects.
# To ensure the specificity of the reporter systems, the Stat3 reporter cell line and the NF-κB reporter system were compared. Each cell type was either untreated, treated with IL-6 (which activates Stat3 in both systems) or treated with TNF-α (which activates NF-κB in both). IL-6 led to approximately a five-fold induction of luciferase in the Stat3 reporter system, but induced no change in the NF-κB reporter cells. Conversely, TNF-α induced a 12-fold induction of luciferase in the NF-κB reporter cells, but led to no change in the Stat3-reporter system. The Stat1 and Stat5 reporter systems show similar characteristics. All three cell-based screens are able to reproducibly identify active and specific compounds.
# The compounds that show selective activity in the primary screen (e.g., 25% or more difference in luciferase activity in the presence versus the absence of the compound and less than 12% difference in luciferase activity in the Nf-κB assay in the presence versus the absence of the compound) were then validated in a dose-response assay using the appropriate reporter cell lines.
# [1] = system: MCF-7 breast cancer cells; test: Growth inhibition by IFN-γ in breast cancer cells; assay type: cell-based, human; details: Stat1-dependent; MCF-7 cells (FIG. 8)
# Stat1 [2] = test: Mechanistic studies of Stat1 tyrosine phosphorylation; assay type: cell-based
# endogenous Stat1 genes = test: Expression of endogenous Stat1 target genes (quantitative real-time PCR); assay type: cell-based
# Experimental: This is followed by another confirmation assay utilizing quantitative real-time PCR measuring expression of endogenous target genes of each Stat. In this assay the cells are incubated as described above. However, after the incubation the cells are lysed and assessed for increased or decreased expression of target genes specific for the respective Stat molecule, e.g., Stat1, interferon-responsive factor (IRF)-1, GADD45[…], and IFI-16; for Stat3, SOCS3, BCL-6, and KLF-4; and, for Stat5, CIS, PIM-1, and MMP3.
# Stat1 [3] = test: Stat1 luciferase reporter cell screen (NIH3T3 cells, IFN-γ stimulated); assay type: cell-based; details: screen for enhancers of Stat1 function
# Experimental: A cell-based assay system for each Stat1, Stat3 and Stat5 was developed to identify compounds that modulate the respective Stat activity. Although the details for each system are slightly different, as described below, the basic principle are the same. […]
# Cells were selected in geneticin (G418) to isolate clones that had stably integrated the plasmid. Individual clones were isolated and luciferase expression was measured by luminometry in the presence and absence of a stimulator of the specific Stat of interest. […]
# All three cell-based screening systems were adapted for use in 384-well plates, which were then used to screen a library of 1120 compounds (the Prestwick Myeloma Collection available from Prestwick Chemical, Illkirch, France). […] After 6 hours, 40 μl of 0.5× Bright-Glo luciferase substrate (diluted in PBS) is added, and luciferase activity is quantitated on a Luminoskan luminometer (Helsinki, Finland). […]
molecule,measurement,setting,value
"O=S1(=O)CCC(OC2CCS(=O)(=O)C2)C1 (stereo not drawn) [3,3′-oxybis[tetrahydrothiophene, 1,1,1′,1′-tetraoxide]",Stat3 modulator class as named in figure legend,Stat3,Stat3 inhibitor
COC(=O)Nc1nc2ccc(C(=O)c3ccccc3)cc2[nH]1 [mebendazole],enhancement of Stat3 function,Stat3,specifically enhance Stat3 function
Nc1ncnc2c1ncn2[C@@H]1O[C@H](COP(=O)(O)O)[C@@H](O)[C@H]1O.O [adenosine 5′-monophosphate monohydrate],enhancement of Stat3 function,Stat3,specifically enhance Stat3 function
C[C@@H]1C[C@@H]([C@H](O)CC2CC(=O)NC(=O)C2)C(=O)[C@@H](C)C1 [cycloheximide],"NF-κB activity, primary screen",NF-κB,inhibited both
same,"Stat3-dependent luciferase activity, primary screen",Stat3,inhibited both
O=C1c2c(O)ccc(O)c2C(=O)c2c(NCCNCCO)ccc(NCCNCCO)c21 [mitoxantrone],"NF-κB activity, primary screen",NF-κB,inhibited both
same,"Stat3-dependent luciferase activity, primary screen",Stat3,inhibited both
"CCCN(CCC)C(=O)CC(c1ccccc1)c1ccccc1O (stereo not drawn) [3-(2-hydroxyphenyl)-3-phenyl-N,N-dipropylpropanamide]",inhibition of Stat3 activity in validation studies,Stat3,significantly and specifically inhibit Stat3 activity
COc1cccc2c1C(=O)c1c(O)c3c(c(O)c1C2=O)C[C@@](O)(C(C)=O)C[C@@H]3O[C@H]1C[C@H](N)[C@H](O)[C@H](C)O1 [daunorubicin],"NF-κB activity, primary screen",NF-κB,inhibited both
same,"Stat3-dependent luciferase activity, primary screen",Stat3,inhibited both
COc1cccc2c1C(=O)c1c(O)c3c(c(O)c1C2=O)C[C@@](O)(C(=O)CO)C[C@@H]3O[C@H]1C[C@H](N)[C@H](O)[C@H](C)O1 [doxorubicin],"NF-κB activity, primary screen",NF-κB,inhibited both
same,"Stat3-dependent luciferase activity, primary screen",Stat3,inhibited both
O=C(N/N=C/c1ccc([N+](=O)[O-])o1)c1ccc(O)cc1 [nifuroxazide],inhibition of Stat3 activity in validation studies,Stat3,significantly and specifically inhibit Stat3 activity
NC(=O)c1ncn([C@@H]2O[C@H](CO)[C@@H](O)[C@H]2O)n1 [ribavirin],enhancement of Stat3 function,Stat3,specifically enhance Stat3 function
CNCCC=C1c2ccccc2CCc2ccccc21 [nortriptyline hydrochloride],enhancement of Stat3 function,Stat3,specifically enhance Stat3 function
C=CCc1ccccc1OCC(O)CNC(C)C (stereo not drawn) [alprenolol hydrochloride],inhibition of Stat3 activity in validation studies,Stat3,significantly and specifically inhibit Stat3 activity
IL-6: cytokine which activates Stat3; specific stimulus of the Stat3 reporter,induction of luciferase in the NF-κB reporter cells,NF-κB,no change
same,induction of luciferase in the Stat3 reporter system,Stat3,five-fold
TNF-α,induction of luciferase in the NF-κB reporter cells,NF-κB,12 fold
same,induction of luciferase in the Stat3 reporter system,Stat3,no change
deptropine citrate,enhancement of Stat3 function,Stat3,specifically enhance Stat3 function
CCOC(=O)Nc1ccc2c(c1)N(C(=O)CCN1CCOCC1)c1ccccc1S2 [moricizine hydrochloride],inhibition of Stat3 activity in validation studies,Stat3,significantly and specifically inhibit Stat3 activity
CNCCC(Oc1ccc(C(F)(F)F)cc1)c1ccccc1 (stereo not drawn) [fluoxetine hydrochloride],inhibition of Stat3 activity in validation studies,Stat3,significantly and specifically inhibit Stat3 activity
CN(C)CCCN1c2ccccc2Sc2ccccc21 [promazine hydrochloride],enhancement of Stat3 function,Stat3,specifically enhance Stat3 function
"Oc1ccccc1-c1ccc2cccnc2n1 [2-(1,8-Naphthyridin-2-yl)phenol]",growth inhibitory effects of IFN-γ on human breast cancer cell lines,[1],accentuated; also recorded: enhances
same,magnitude and duration of Stat1 tyrosine phosphorylation,Stat1 [2],increasing
same,expression of endogenous Stat1 genes,endogenous Stat1 genes,enhanced
same,Stat1 modulator class as named in figure legend,Stat1 [3],Stat1 activator
COC(=O)Nc1nc2ccc(C(=O)c3cccs3)cc2[nH]1 [nocodazole],enhancement of Stat3 function,Stat3,specifically enhance Stat3 function
solanine alpha,inhibition of Stat3 activity in validation studies,Stat3,significantly and specifically inhibit Stat3 activity
O=P1(NCCCl)OCCCN1CCCl (stereo not drawn) [ifosfamide],inhibition of Stat3 activity in validation studies,Stat3,significantly and specifically inhibit Stat3 activity
COc1cc([C@@H]2c3cc4c(cc3[C@H](O)[C@H]3COC(=O)[C@H]23)OCO4)cc(OC)c1OC [podophyllotoxin],enhancement of Stat3 function,Stat3,specifically enhance Stat3 function
N=C(N)N/N=C/c1c(Cl)cccc1Cl [guanabenz acetate],inhibition of Stat3 activity in validation studies,Stat3,significantly and specifically inhibit Stat3 activity
CN(C)C/C=C(/c1ccc(Br)cc1)c1cccnc1 [zimelidine dihydrochloride monohydrate],enhancement of Stat3 function,Stat3,specifically enhance Stat3 function
CC[N+](C)(CC)CCC[n+]1c(-c2ccccc2)c2cc(N)ccc2c2ccc(N)cc21.[I-].[I-] [propidium iodide],"NF-κB activity, primary screen",NF-κB,inhibited both
same,"Stat3-dependent luciferase activity, primary screen",Stat3,inhibited both
